Source: patent US8354455B2, “Prodrugs containing novel bio-cleavable linkers” (Piramal Enterprises Limited and Apparao Satyam, priority 2004, dated 2013)
Like-named read-outs stand apart in the source and are kept apart here. Marks after values point to notes of the source that are not given here.

Legend:
[1] = tested on: MES-induced seizures; test: Maximal Electroshock Test (MES), Test 1, mice i.p.; assay type: in vivo; details: for activity in MES model (in words): Test 1, mice i.p.
[2] = tested on: MES-induced seizures; test: animal or person; assay type: in vivo, rats; details: for ED50: Rattus norvegicus, po, MES model, at time of peak effect
[3] = tested on: convulsant metrazol; test: Subcutaneous Metrazol Seizure Threshold Test (scMET), Test 1, mice i.p.; assay type: in vivo; details: symbol = dose with activity; for minimal effective dose: Mus musculus, ip
[4] = tested on: mice; details: for toxicity (in words): Test 1, mice i.p.; for Rotorod Toxicity 0.5 h / Rotorod Toxicity 4.0 h: mice, i.p., symbol = dose with toxicity
[5] = tested on: convulsant metrazol; test: scMET, rats p.o. (Test 3); assay type: in vivo; details: Test 3, rats p.o.
Description: Subcutaneous Metrazol Seizure Threshold Test (scMET): Subcutaneous injection of the convulsant metrazol produces clonic seizures in laboratory animals. […] Animals were pretreated with various doses of the test compound given by i.p. injection. At the previously determined Time to Peak Effect (TPE) of the test compound, the dose of metrazol which will produce convulsions in 97% of animals (CD97: 85 mg/kg in mice) was injected into a loose fold of skin in the midline of the neck. The animals were placed in isolation cages to minimize stress and observed for the next 30 minutes for the presence or absence of a seizure. An episode of clonic spasms, approximately […], of the fore and/or hind limbs, jaws, or vibrissae is taken as the end point.
Rats received test compounds orally.

[6] = tested on: rats; test: Neurotoxicity, rats p.o. (Test 2 and Test 3)
Description: Acute Toxicity—Minimal Motor Impairment (MMI): To assess a compound's undesirable side effects (toxicity), animals were monitored for overt signs of impaired neurological or muscular function.
Groups of at least 8 rats received various doses of the candidate compound until at least two points were established between the limits of 100 percent protection or toxicity and zero percent protection or minimal toxicity. The 95 percent confidence limits, slopes of the regression lines and standard errors of the slopes were calculated for each quantitative determination. Rats received test compounds orally.
This secondary evaluation determines the time to peak effect (TPE), neurotoxicity, median effective dose (ED50) and biological response.

[7] = rat, in vivo, po
[8] = tested on: rats; details: rat, in vivo, po, 200 mg/kg
[9] = mice, i.p., 4.0 h, 300 mg/kg (+)
[10] = Test 2, rats p.o., 30 mg/kg, 0.50 h
[11] = Test 2, rats p.o., 30 mg/kg, 1.00 h
[12] = Test 2, rats p.o., 30 mg/kg, 2.00 h
[13] = Test 2, rats p.o., 30 mg/kg, 4.00 h
[14] = Test 3 time to peak effect, rats p.o., 30 mg/kg, 0.5 h
[15] = Test 3 time to peak effect, rats p.o., 30 mg/kg, 1.0 h
[16] = Test 3 time to peak effect, rats p.o., 30 mg/kg, 2.0 h
[17] = Test 3 time to peak effect, rats p.o., 30 mg/kg, 4.0 h
[18] = 0.5 h, read-out: ScMET 0.5 h, mice, i.p., 0.5 h
[19] = 4 h, read-out: ScMET 4.0 h, mice, i.p., 4.0 h
[20] = Test 2, rats p.o., 150 mg/kg, 4.00 h
[21] = Test 2, rats p.o., 150 mg/kg, 6.00 h
[22] = Test 2, rats p.o., 150 mg/kg, 8.00 h

## Nc1nc(NC(=O)OCCSSCCO)nnc1-c1cccc(Cl)c1Cl [I-A1-PD4]
[1]
  activity in MES model (in words): active in MES
[1]; mice, i.p., 0.5 h, 100 mg/kg (++)
  MES (number of animal protected/number of animal tested): (1/7)
[1]; mice, i.p., 0.5 h, 300 mg/kg (+)
  MES (number of animal protected/number of animal tested): (2/5)
[1]; mice, i.p., 4.0 h, 30 mg/kg (+++)
  MES (number of animal protected/number of animal tested): (1/1)
[1]; mice, i.p., 4.0 h, 100 mg/kg (++)
  MES (number of animal protected/number of animal tested): (3/3)
[1]; [9]
  MES (number of animal protected/number of animal tested): (1/1)
[2]; rats p.o.
  ED50: 6.55 mg/kg
[2]; [10]
  MES (number of animal protected/number of animal tested): 0/4
[2]; [11]
  MES (number of animal protected/number of animal tested): 1/4
[2]; [12]
  MES (number of animal protected/number of animal tested): 3/4
[2]; [13]
  MES (number of animal protected/number of animal tested): 4/4
[2]; Test 3 ED50 quantification, rats p.o., 4 h, 1.9 mg/kg
  MES (number of animal protected/number of animal tested): 0/8
[2]; Test 3 ED50 quantification, rats p.o., 4 h, 3.8 mg/kg
  MES (number of animal protected/number of animal tested): 4/8
[2]; Test 3 ED50 quantification, rats p.o., 4 h, 7.5 mg/kg
  MES (number of animal protected/number of animal tested): 4/8
[2]; Test 3 ED50 quantification, rats p.o., 4 h, 15 mg/kg
  MES (number of animal protected/number of animal tested): 7/8
[2]; Test 3 ED50 quantification, rats p.o., 4 h, 30 mg/kg
  MES (number of animal protected/number of animal tested): 7/8
[2]; Test 3 time to peak effect, rats p.o., 10 mg/kg, 4.0 h
  MES (number of animal protected/number of animal tested): 4/4
[2]; Test 3 time to peak effect, rats p.o., 10 mg/kg, 6.0 h
  MES (number of animal protected/number of animal tested): 3/4
[2]; Test 3 time to peak effect, rats p.o., 10 mg/kg, 8.0 h
  MES (number of animal protected/number of animal tested): 2/4
[2]; Test 3 time to peak effect, rats p.o., 10 mg/kg, 24 h
  MES (number of animal protected/number of animal tested): 0/4
[2]; Test 3 time to peak effect, rats p.o., 30 mg/kg, 0.25 h
  MES (number of animal protected/number of animal tested): 2/4
[2]; [14]
  MES (number of animal protected/number of animal tested): 2/4
[2]; [15]
  MES (number of animal protected/number of animal tested): 2/4
[2]; [16]
  MES (number of animal protected/number of animal tested): 2/4
[2]; [17]
  MES (number of animal protected/number of animal tested): 4/4
[3]; [18]
  minimal effective dose: > 300 mg/kg
[3]; [19]
  minimal effective dose: > 300 mg/kg
[4]
  toxicity (in words): no or mild toxicity
  Rotorod Toxicity 0.5 h: — (— = no activity or no toxicity at 300 mg/kg)
  Rotorod Toxicity 4.0 h: — (— = no activity or no toxicity at 300 mg/kg)
[5]; 0.25 h
  ScMET (50 mg/kg) (number of animal protected/number of animal tested): 1/4^f
[5]; 0.5 h
  ScMET (50 mg/kg) (number of animal protected/number of animal tested): 0/4
[5]; 1.0 h
  ScMET (50 mg/kg) (number of animal protected/number of animal tested): 2/4
[5]; 2.0 h
  ScMET (50 mg/kg) (number of animal protected/number of animal tested): 1/4^g
[5]; 4.0 h
  ScMET (50 mg/kg) (number of animal protected/number of animal tested): 0/4
[6]; [10]
  Toxicity (number of animals exhibiting toxicity/number of animals tested): 0/4
[6]; [11]
  Toxicity (number of animals exhibiting toxicity/number of animals tested): 0/4
[6]; [12]
  Toxicity (number of animals exhibiting toxicity/number of animals tested): 0/4
[6]; [13]
  Toxicity (number of animals exhibiting toxicity/number of animals tested): 0/4
[6]; Test 3, rats p.o., 100 mg/kg, 0.25 h
  Toxicity (number of animals exhibiting toxicity/number of animals tested): 0/4 (100)
[6]; Test 3, rats p.o., 100 mg/kg, 0.5 h
  Toxicity (number of animals exhibiting toxicity/number of animals tested): 0/4 (100)
[6]; Test 3, rats p.o., 100 mg/kg, 1.0 h
  Toxicity (number of animals exhibiting toxicity/number of animals tested): 0/4 (100)
[6]; Test 3, rats p.o., 100 mg/kg, 2.0 h
  Toxicity (number of animals exhibiting toxicity/number of animals tested): 0/4 (100)

## CCOC(=O)CC1(CNC(=O)OCCSSCCOC(=O)Nc2nnc(-c3cccc(Cl)c3Cl)c(N)n2)CCCCC1 [I-AA-MPD12]
[1]; Mus musculus, ip, 0.5 h, read-out: MES 0.5 h, mice, i.p., 0.5 h, symbol = dose with activity
  minimal effective dose: > 300 mg/kg
[1]
  activity in MES model (in words): active in MES
[1]; mice, i.p., 6 h (footnotes g, m; printed in 4.0 h column)
  MES, at 6 hours after dosing: ++ (++ = activity or toxicity at 100 mg/kg)
[2]; rats p.o.
  ED50: 17.1 mg/kg
[2]; [11]
  MES (number of animal protected/number of animal tested): 0/4
[2]; Test 3 ED50 quantification, rats p.o., 6 h, 60 mg/kg
  MES (number of animal protected/number of animal tested): 7/8
[2]; Test 3 time to peak effect, rats p.o., 15 mg/kg, 8.0 h
  MES (number of animal protected/number of animal tested): 1/4
[2]; [14]
  MES (number of animal protected/number of animal tested): 0/4
[2]; [15]
  MES (number of animal protected/number of animal tested): 0/4
[2]; [16]
  MES (number of animal protected/number of animal tested): 1/4
[2]; [17]
  MES (number of animal protected/number of animal tested): 3/4
[2]; Test 3 time to peak effect, rats p.o., 30 mg/kg, 8.0 h
  MES (number of animal protected/number of animal tested): 4/4
[2]; Test 3 time to peak effect, rats p.o., 30 mg/kg, 24 h
  MES (number of animal protected/number of animal tested): 2/4
[3]; [18]
  minimal effective dose: > 300 mg/kg
[3]; [19]
  minimal effective dose: > 300 mg/kg
[4]
  toxicity (in words): no or mild toxicity
  Rotorod Toxicity 0.5 h: — (— = no activity or no toxicity at 300 mg/kg)
  Rotorod Toxicity 4.0 h: — (— = no activity or no toxicity at 300 mg/kg)
[5]; 1.0 h
  ScMET (50 mg/kg) (number of animal protected/number of animal tested): 1/4
[5]; 2.0 h
  ScMET (50 mg/kg) (number of animal protected/number of animal tested): 0/4
[5]; 4.0 h
  ScMET (50 mg/kg) (number of animal protected/number of animal tested): 0/4
[5]; 6.0 h
  ScMET (50 mg/kg) (number of animal protected/number of animal tested): 1/4
[5]; 8.0 h
  ScMET (50 mg/kg) (number of animal protected/number of animal tested): 2/4
[5]; 24 h
  ScMET (50 mg/kg) (number of animal protected/number of animal tested): 0/4
[6]; [11]
  Toxicity (number of animals exhibiting toxicity/number of animals tested): 0/4
[6]; [12]
  Toxicity (number of animals exhibiting toxicity/number of animals tested): 0/4
[6]; [13]
  Toxicity (number of animals exhibiting toxicity/number of animals tested): 0/4
[6]; Test 3, rats p.o., 50 mg/kg, 1.0 h
  Toxicity (number of animals exhibiting toxicity/number of animals tested): 0/4 (50)
[6]; Test 3, rats p.o., 50 mg/kg, 2.0 h
  Toxicity (number of animals exhibiting toxicity/number of animals tested): 0/4 (50)
[6]; Test 3, rats p.o., 50 mg/kg, 4.0 h
  Toxicity (number of animals exhibiting toxicity/number of animals tested): 0/4 (50)
[6]; Test 3, rats p.o., 50 mg/kg, 6.0 h
  Toxicity (number of animals exhibiting toxicity/number of animals tested): 0/4 (50)
[6]; Test 3, rats p.o., 50 mg/kg, 8.0 h
  Toxicity (number of animals exhibiting toxicity/number of animals tested): 0/4 (50)
[6]; Test 3, rats p.o., 50 mg/kg, 24 h
  Toxicity (number of animals exhibiting toxicity/number of animals tested): 0/4 (50)

## CC(=O)Oc1ccccc1C(=O)[N-]C(=O)OCCSSCCO[N+](=O)[O-].[Na+] [I-C1-NOPD5B]
[7]
  bioavailability compared with parent drug (in words): as bioavailable as its parent drug
[8]
  ulcers (in words): none of the animals treated with the test compounds showed any signs of development of ulcers

## CCCC(CCC)C(=O)OCCSSCCOC(=O)Nc1nnc(-c2cccc(Cl)c2Cl)c(N)n1 [I-CA-MPD23]
[1]
  activity in MES model (in words): active in MES
[1]; mice, i.p., 0.5 h, symbol = dose with activity
  MES 0.5 h: — (— = no activity or no toxicity at 300 mg/kg)
[1]; mice, i.p., 2 h (footnote h; printed in 4.0 h column)
  MES, at 2 hours after dosing: ++ (++ = activity or toxicity at 100 mg/kg)
[1]; [9]
  MES (number of animal protected/number of animal tested): (1/3)
[1]; mice, i.p., 4.0 h, symbol = dose with activity
  MES 4.0 h: + (+ = activity or toxicity at 300 mg/kg)
[2]; [20]
  MES (number of animal protected/number of animal tested): 4/4
[2]; [21]
  MES (number of animal protected/number of animal tested): 4/4
[2]; [22]
  MES (number of animal protected/number of animal tested): 4/4
[3]; mice, i.p., 0.5 h
  ScMET 0.5 h: — (— = no activity or no toxicity at 300 mg/kg)
[3]; mice, i.p., 4.0 h
  ScMET 4.0 h: — (— = no activity or no toxicity at 300 mg/kg)
[4]
  toxicity (in words): no or mild toxicity
[6]; Test 2, rats p.o., 150 mg/kg, 2.00 h
  Toxicity (number of animals exhibiting toxicity/number of animals tested): 0/4
[6]; [20]
  Toxicity (number of animals exhibiting toxicity/number of animals tested): 0/4
[6]; [21]
  Toxicity (number of animals exhibiting toxicity/number of animals tested): 0/4
[6]; [22]
  Toxicity (number of animals exhibiting toxicity/number of animals tested): 0/4
